Reference: patent US9937183B2, “Antimicrobial compounds and methods of making and using the same” (priority 2013, dated 2018)
Converted amounts (≈) assume the structure as drawn. Where two headings read alike, the source gives them in different places.

Tests used:
Type in all cases: cell-based
[1] = tested on: S. aureus 11540 MRSA; assay: MIC, microtiter-based liquid assay (CLSI); settings: Staphylococcus aureus
[2] = tested on: F. tularensis; assay: microbe, parasite or virus in culture; settings: Francisella tularensis; for MIC50: read-out: F. tularensis MIC50; for MIC90: read-out: F. tularensis MIC90; for MIC: read-out: F. tularensis MIC Range
[3] = tested on: Y. pestis; assay: microbe, parasite or virus in culture; settings: Yersinia pestis; for MIC50: read-out: Y. pestis MIC50; for MIC90: read-out: Y. pestis MIC90; for MIC: read-out: Y. pestis MIC Range
[4] = tested on: A. baumannii 1705936; assay: MIC, microtiter-based liquid assay (CLSI); settings: Acinetobacter baumannii, MDR strain
[5] = tested on: K. pneumoniae 1705966; assay: MIC, microtiter-based liquid assay (CLSI); settings: Klebsiella pneumoniae
[6] = tested on: A. baumannii 1705943; assay: MIC, microtiter-based liquid assay (CLSI); settings: Acinetobacter baumannii
[7] = tested on: E. coli ATCC25922; assay: MIC, microtiter-based liquid assay (CLSI); settings: Escherichia coli
[8] = tested on: E. coli CAG12184 TolC; assay: MIC, microtiter-based liquid assay (CLSI); settings: Escherichia coli, CAG12184TOLC
[9] = tested on: K. pneumoniae 1705949; assay: MIC, microtiter-based liquid assay (CLSI); settings: Klebsiella pneumoniae, MDR strain
[10] = tested on: S. pneumoniae 02J1175 Mef(A); assay: MIC, microtiter-based liquid assay (CLSI); settings: Streptococcus pneumoniae
[11] = tested on: E. coli 1705878; assay: MIC, microtiter-based liquid assay (CLSI); settings: Escherichia coli, MDR strain
[12] = tested on: P. aeruginosa 1705904; assay: MIC, microtiter-based liquid assay (CLSI); settings: Pseudomonas aeruginosa, MDR strain
[13] = tested on: E. coli MG1655 parent; assay: MIC, microtiter-based liquid assay (CLSI); settings: Escherichia coli
[14] = tested on: P. aeruginosa 1705886; assay: MIC, microtiter-based liquid assay (CLSI); settings: Pseudomonas aeruginosa
[15] = tested on: B. pseudomallei; assay: microbe, parasite or virus in culture; settings: Burkholderia pseudomallei; for MIC50: read-out: B. pseudomallei MIC50; for MIC90: read-out: B. pseudomallei MIC90; for MIC: read-out: B. pseudomallei MIC Range
[16] = tested on: P. aeruginosa ATCC27853; assay: MIC, microtiter-based liquid assay (CLSI); settings: Pseudomonas aeruginosa
[17] = tested on: B. mallei; assay: microbe, parasite or virus in culture; settings: Burkholderia mallei; for MIC50: read-out: B. mallei MIC50; for MIC90: read-out: B. mallei MIC90; for MIC: read-out: B. mallei MIC Range
[18] = tested on: B. anthracis; assay: microbe, parasite or virus in culture; settings: Bacillus anthracis; for MIC50: read-out: B. anthracis MIC50; for MIC90: read-out: B. anthracis MIC90; for MIC: read-out: B. anthracis MIC Range
[19] = tested on: E. faecium A6349 VanA + LNZ-R; assay: MIC, microtiter-based liquid assay (CLSI); settings: Enterococcus faecium
[20] = ATCC25922, read-out: MIC E. coli ATCC25922 + 50% HS
[21] = ATCC25922, read-out: MIC E. coli ATCC25922

| SMILES | MIC [1] | MIC50 [2] | MIC90 [2] | MIC [2] | MIC50 [3] | MIC90 [3] | MIC [3] | MIC [4] | MIC [5] | MIC [6] | MIC [7, 20] | MIC [7, 21] | MIC [8] | MIC [9] | MIC [10] | MIC [11] | MIC [12] | MIC [13] | MIC [14] | MIC50 [15] | other results |
| --- | --- | --- | --- | --- | --- | --- | --- | --- | --- | --- | --- | --- | --- | --- | --- | --- | --- | --- | --- | --- | --- |
| C[C@H](NCCCNC(=N)N)c1ccc(-n2cc3cc(-c4cc(CCC[C@@H](N)CF)cc(Cl)c4F)[nH]c3nc2=O)cc1 [Compound 17] | 0.25 µg/mL (≈ 0.427 µM) | ≤ 0.03 µg/mL | 0.12 µg/mL (≈ 0.205 µM) | 0.03 to 1 µg/mL (≈ 0.0513 to 1.71 µM) | 0.25 µg/mL (≈ 0.427 µM) | 0.5 µg/mL (≈ 0.855 µM) | 0.03 to 0.5 µg/mL (≈ 0.0513 to 0.855 µM) | 1 µg/mL (≈ 1.71 µM) | 0.125 µg/mL (≈ 0.214 µM) | 0.25 µg/mL (≈ 0.427 µM) | 0.5 µg/mL | 0.25 µg/mL (≈ 0.427 µM) | 0.125 µg/mL (≈ 0.214 µM) | 1 µg/mL (≈ 1.71 µM) | 0.125 µg/mL (≈ 0.214 µM) | 2 µg/mL (≈ 3.42 µM) | 8 µg/mL (≈ 13.7 µM) | 1 µg/mL (≈ 1.71 µM) | 4 µg/mL (≈ 6.84 µM) | 8 µg/mL (≈ 13.7 µM) | MIC90 [15]: 16 µg/mL (≈ 27.3 µM); MIC [15]: 1 to 16 µg/mL (≈ 1.71 to 27.3 µM); MIC [16]: 8 µg/mL (≈ 13.7 µM); MIC50 [17]: 0.06 µg/mL (≈ 0.103 µM); MIC90 [17]: 0.25 µg/mL (≈ 0.427 µM); MIC [17]: 0.03 to 0.25 µg/mL (≈ 0.0513 to 0.427 µM); MIC50 [18]: 0.25 µg/mL (≈ 0.427 µM); MIC90 [18]: 0.25 µg/mL (≈ 0.427 µM); MIC [18]: 0.03 to 0.5 µg/mL (≈ 0.0513 to 0.855 µM); MIC [19]: 0.5 µg/mL |
| C[C@H](N)CCCc1cc(-c2cc3cn(-c4ccc([C@H](C)NCCCNC(=N)N)cc4)c(=O)nc3[nH]2)c(F)c(Cl)c1F [Compound 12] | 0.125 µg/mL (≈ 0.214 µM) | ≤ 0.03 µg/mL | ≤ 0.03 µg/mL | 0.03 to 1 µg/mL (≈ 0.0513 to 1.71 µM) | 0.12 µg/mL (≈ 0.205 µM) | 0.25 µg/mL (≈ 0.427 µM) | 0.03 to 0.5 µg/mL (≈ 0.0513 to 0.855 µM) | 2 µg/mL (≈ 3.42 µM) | 0.125 µg/mL (≈ 0.214 µM) | 0.25 µg/mL (≈ 0.427 µM) | 0.5 µg/mL | 0.125 µg/mL (≈ 0.214 µM) | 0.125 µg/mL (≈ 0.214 µM) | 0.25 µg/mL (≈ 0.427 µM) | 0.125 µg/mL (≈ 0.214 µM) | 0.25 µg/mL (≈ 0.427 µM) | 4 µg/mL (≈ 6.84 µM) | 0.25 µg/mL (≈ 0.427 µM) | 2 µg/mL (≈ 3.42 µM) | 4 µg/mL (≈ 6.84 µM) | MIC90 [15]: 8 µg/mL (≈ 13.7 µM); MIC [15]: 0.5 to 16 µg/mL (≈ 0.855 to 27.3 µM); MIC [16]: 4 µg/mL (≈ 6.84 µM); MIC50 [17]: ≤ 0.03 µg/mL; MIC90 [17]: 0.12 µg/mL (≈ 0.205 µM); MIC [17]: 0.03 to 0.25 µg/mL (≈ 0.0513 to 0.427 µM); MIC50 [18]: 0.06 µg/mL (≈ 0.103 µM); MIC90 [18]: 0.12 µg/mL (≈ 0.205 µM); MIC [18]: 0.03 to 0.25 µg/mL (≈ 0.0513 to 0.427 µM); MIC [19]: 0.5 µg/mL |
